From patent US8722727B2, “Antifungal agents” (Seynix, Inc., priority 2008, dated 2014)

Molecular target: T1, glucan synthase (GS) (Candida albicans, UniProt O13428)
T1 construct: Extraction of GS activity from membranes was performed at a protein concentration of 5 mg/mL in extraction buffer; endogenous in cells; host or cells: Candida albicans MY1055 (membrane fraction, detergent extraction, product entrapment)
Assay: Glucan synthase inhibition (polymerization assay, 96-well)
Type: biochemical
Details: glucan synthase prepared from Candida albicans MY1055; 60 min incubation at 22° C.; read-out: Candida Albicans GS IC50 (ng/mL) (converted)
Description: The in vitro evaluation of glucan synthase inhibitory activity of compounds was measured in a polymerization assay in 96-well format. Each well contained 100 μL of ^3H-UDPG at 0.5 mM (6000 to 8000 dpm/nmol), 50 mM HEPES pH 7.5 (Sigma), 10% w/v glycerol (Sigma), 1.5 mg/mL bovine serum albumin (Sigma A 9647. Lot 44H0190), 25 mM KF (Fisher), 1 mM EDTA (Gibco ULTRAPURE), 25 μM GTP-γ-S, enzyme sufficient to give 3 to 6 nmoles incorporation during the 60 min incubation at 22° C., and test compound added from wells in 3-fold serial dilutions in 100% DMSO (1 μL/well). The reaction was stopped by the addition of 100 μL of 20% trichloroacetic acid. Plates were chilled for a minimum of 10 min, and precipitated glucan collected by filtration on GF/C plates (Packard UNIFILTER®-96), washed with 5 cycles of water (about 1 mL/well each cycle) using a Packard FILTERMATE HARVESTER. 40 μL/well scintillation fluid (Packard ULTIMA GOLD TM-XR) was added and the sealed plates counted in a WALLAC BETA counter in top-counting mode at an efficiency of approximately 40%.
Stock solutions were stored at 10 mg/mL in DMSO at −20° C. For each new enzyme preparation, the initial titration performed started at 1 mg/mL, which was prepared by making a 10-fold dilution in DMSO (5 μL to 50 μL). 40 μL of this stock was placed in column 12 of a round-bottomed 96-well microtiter plate. 40 μL DMSO was added to columns 1 to 11 in the same row and ten 3-fold serial dilutions performed, by transferring 20 μL from column 12 to column 11 etc., with 4 mixings before each transfer. No test compound was transferred to from column 2 to column 1. Duplicate aliquots of 1 μL of all 12 dilutions were then transferred to the side walls of a 96-well Bioblock 1.1 mL plate (Fisher brand) to create two rows. Graphs of the primary data were created in PRISM software (the average of two determinations) using PRISM's curve fitting program (sigmoidal dose response non-linear regression). The amount of compound required to inhibit glucan synthase activity by 50% in this assay (IC50-ng/mL) was calculated.
Routine analysis was performed with glucan synthase (GS) prepared from Candida albicans MY1055 by the following procedure: MY1055 was grown in 10 liters YPD medium (10 g yeast extract, 20 g tryptone, 20 g glucose per liter) with vigorous shaking at 30° C., to early stationary phase. Cells were harvested by centrifugation, the pellet was washed and frozen at −70° C. until breakage. Thawed pellets were shaken with an equal volume of breakage buffer (50 mM HEPES pH 7.4, 10% glycerol, 1 mM EDTA, 1 mM PMSF, 1 mM DTT) and 4 times their weight of 0.5 mm acid washed glass beads for 2 hours at 4° C. Extent of breakage was assessed visually at 40× magnification. After low speed centrifugation to remove cell debris, the supernatant was centrifuged at 100,000×g for 60 min. to separate membranes plus ribosomes from cytoplasmic components. Membranes were further washed two additional times with breakage buffer using the same centrifugation conditions and finally suspended in breakage buffer at 25 to 30 mg/mL protein (Biorad) for storage at −70° C. Extraction of GS activity from membranes was performed at a protein concentration of 5 mg/mL in extraction buffer (50 mM NaPO4 pH 7.5, 0.1 M KCl, 0.1M Na citrate, 20% glycerol, 5 μM GTP-γ-S, 1 mM DTT, 1 mM PMSF, 3 μg/mL pepstatin) plus 0.25% W1 by gentle mixing at 4° C. for 60 min, followed by centrifugation at 100,000×g for 60 min. After centrifugation, clear supernatant was removed from a pellet consisting of a hard layer usually with small amounts of gelatinous unextracted membranes above it.
Trapping was initiated immediately by 5-fold dilution in trapping buffer (50 mM HEPES pH 7.5, 10 mM KF, 1 mM EDTA, 2 mg/mL BSA) plus 2.5 mM UDPG and 10 μM GTP-γ-S. After incubation at 25° C. for 60 to 90 minutes, glucan was harvested by low speed centrifugation (3,000×g, 10 min). […]

T1 sequence (O13428 1-1897): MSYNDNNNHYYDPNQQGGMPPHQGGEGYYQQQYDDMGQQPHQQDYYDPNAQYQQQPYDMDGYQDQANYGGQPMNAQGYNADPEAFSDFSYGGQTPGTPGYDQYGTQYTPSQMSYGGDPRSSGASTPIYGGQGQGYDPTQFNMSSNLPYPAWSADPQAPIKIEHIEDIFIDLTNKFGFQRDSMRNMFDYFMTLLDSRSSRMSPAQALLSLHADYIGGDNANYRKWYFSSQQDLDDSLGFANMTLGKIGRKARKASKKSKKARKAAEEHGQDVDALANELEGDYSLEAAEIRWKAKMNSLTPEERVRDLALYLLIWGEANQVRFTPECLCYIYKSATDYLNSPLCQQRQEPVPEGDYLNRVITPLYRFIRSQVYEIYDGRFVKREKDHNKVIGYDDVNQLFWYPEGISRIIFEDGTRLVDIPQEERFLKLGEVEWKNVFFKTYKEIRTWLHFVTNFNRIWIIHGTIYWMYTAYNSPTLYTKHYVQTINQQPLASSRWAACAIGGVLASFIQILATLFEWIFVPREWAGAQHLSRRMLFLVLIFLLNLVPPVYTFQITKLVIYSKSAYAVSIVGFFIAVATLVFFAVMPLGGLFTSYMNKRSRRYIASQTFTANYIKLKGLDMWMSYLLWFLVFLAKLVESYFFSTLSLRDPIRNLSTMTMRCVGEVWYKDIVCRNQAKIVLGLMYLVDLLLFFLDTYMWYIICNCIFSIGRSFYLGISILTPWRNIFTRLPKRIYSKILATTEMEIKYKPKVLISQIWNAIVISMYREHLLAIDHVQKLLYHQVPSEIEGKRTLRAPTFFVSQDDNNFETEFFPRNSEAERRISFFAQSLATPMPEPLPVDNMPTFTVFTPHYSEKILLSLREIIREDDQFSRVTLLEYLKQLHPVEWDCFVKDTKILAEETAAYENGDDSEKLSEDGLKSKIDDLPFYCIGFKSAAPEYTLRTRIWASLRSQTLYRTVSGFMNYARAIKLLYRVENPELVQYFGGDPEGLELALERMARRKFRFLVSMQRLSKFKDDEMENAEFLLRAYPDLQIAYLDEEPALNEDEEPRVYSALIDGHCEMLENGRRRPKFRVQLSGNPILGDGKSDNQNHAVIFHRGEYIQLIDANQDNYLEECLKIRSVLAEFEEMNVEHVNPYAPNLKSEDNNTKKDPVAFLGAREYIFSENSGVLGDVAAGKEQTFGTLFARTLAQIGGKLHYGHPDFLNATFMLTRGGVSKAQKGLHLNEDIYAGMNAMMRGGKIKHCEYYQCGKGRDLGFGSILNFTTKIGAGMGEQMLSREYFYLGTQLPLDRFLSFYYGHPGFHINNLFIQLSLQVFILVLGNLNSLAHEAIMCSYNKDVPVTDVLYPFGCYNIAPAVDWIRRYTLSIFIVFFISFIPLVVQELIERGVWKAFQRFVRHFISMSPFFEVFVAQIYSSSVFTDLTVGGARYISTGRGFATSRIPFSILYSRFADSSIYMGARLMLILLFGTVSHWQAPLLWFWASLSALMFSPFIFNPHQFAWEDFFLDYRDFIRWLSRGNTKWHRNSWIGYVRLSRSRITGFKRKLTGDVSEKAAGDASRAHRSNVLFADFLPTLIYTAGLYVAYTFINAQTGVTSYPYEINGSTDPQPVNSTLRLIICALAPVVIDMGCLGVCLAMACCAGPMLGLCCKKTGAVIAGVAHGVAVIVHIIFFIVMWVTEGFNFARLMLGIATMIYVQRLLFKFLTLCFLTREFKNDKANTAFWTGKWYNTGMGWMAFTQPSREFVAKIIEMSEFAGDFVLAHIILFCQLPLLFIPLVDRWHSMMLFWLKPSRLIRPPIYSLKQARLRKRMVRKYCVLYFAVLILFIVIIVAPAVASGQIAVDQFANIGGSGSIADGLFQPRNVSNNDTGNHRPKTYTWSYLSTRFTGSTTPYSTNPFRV
T1 sequence (O42825 1-195 partner limits assumed): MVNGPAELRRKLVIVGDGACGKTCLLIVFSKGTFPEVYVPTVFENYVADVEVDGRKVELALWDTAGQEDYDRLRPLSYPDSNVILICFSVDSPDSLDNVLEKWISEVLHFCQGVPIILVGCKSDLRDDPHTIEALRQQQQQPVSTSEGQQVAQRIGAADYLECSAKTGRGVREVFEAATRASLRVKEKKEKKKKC

For CC(C)[C@@H](C)[C@@]1(C)CC[C@]2(C)[C@H]3CC[C@@H]4[C@@]5(COC[C@@]4(C)[C@@H](OC[C@H](N)c4ccccc4)[C@H](n4nnc(N)n4)C5)C3=CC[C@@]2(C)[C@@H]1C(=O)O [Example 88, (1S,4aR,6aS,7R,8R,10aR,10bR,12aR,14R,15R)-14-(5-amino-2H-tetrazol-2-yl)-15-[(2R)-2-amino-2-phenylethoxy]-8-[(1R)-1,2-dimethylpropyl]-1,6,6a,7,8,9,10,10a,10b,11,12,12a-dodecahydro-1,6a,8,10a-tetramethyl-4H-1,4a-propano-2H-phenanthro[1,2-c]pyran-7-carboxylic acid], the IC50 was 26.7 nM.

For Cc1nnnn1[C@@H]1C[C@@]23COC[C@](C)([C@@H]2CC[C@H]2C3=CC[C@@]3(C)[C@H](C(=O)O)[C@@](C)([C@H](C)C(C)C)CC[C@]23C)[C@H]1OCCN [Example 41A, (1S,4aR,6aS,7R,8R,10aR,10bR,12aR,14R,15R)-15-(2-aminoethoxy)-8-[(1R)-1,2-dimethylpropyl]-14-(5-methyl-1H-tetrazol-1-yl)-1,6,6a,7,8,9,10,10a,10b,11,12,12a-dodecahydro-1,6a,8,10a-tetramethyl-4H-1,4a-propano-2H-phenanthro[1,2-c]pyran-7-carboxylic acid], the IC50 was 199 nM.

Work on CCCCN[C@](C)(CO[C@H]1[C@H](n2nnc(N)n2)C[C@@]23COC[C@]1(C)[C@@H]2CC[C@H]1C3=CC[C@@]2(C)[C@H](C(=O)O)[C@@](C)([C@H](C)C(C)C)CC[C@]12C)C(C)C [Example 71, (1S,4aR,6aS,7R,8R,10aR,10bR,12aR,14R,15R)-14-(5-amino-2H-tetrazol-2-yl)-15-[[(2S)-2-(butylamino)-2,3-dimethylbutyl]oxy]-8-[(1R)-1,2-dimethylpropyl]-1,6,6a,7,8,9,10,10a,10b,11,12,12a-dodecahydro-1,6a,8,10a-tetramethyl-4H-1,4a-propano-2H-phenanthro[1,2-c]pyran-7-carboxylic acid] yielded an IC50 of 12.7 nM.

With CC(C)[C@@H](C)[C@@]1(C)CC[C@]2(C)[C@H]3CC[C@@H]4[C@@]5(COC[C@@]4(C)[C@@H](OCC(C)(C)N)[C@H](n4ncnn4)C5)C3=CC[C@@]2(C)[C@@H]1C(=O)O [Example 1B, (1S,4aR,6aS,7R,8R,10aR,10bR,12aR,14R,15R)-15-(2-amino-2-methylpropoxy)-8-[(1R)-1,2-dimethylpropyl]-14-(2H-tetrazol-2-yl)-1,6,6a,7,8,9,10,10a,10b,11,12,12a-dodecahydro-1,6a,8,10a-tetramethyl-4H-1,4a-propano-2H-phenanthro[1,2-c]pyran-7-carboxylic acid] the IC50 was 9.81 nM.

CC(C)[C@@H](C)[C@@]1(C)CC[C@]2(C)[C@H]3CC[C@@H]4[C@@]5(COC[C@@]4(C)[C@@H](OC[C@](C)(N)C(C)C)[C@H](n4nnnc4N)C5)C3=CC[C@@]2(C)[C@@H]1C(=O)O [Example 9, (1S,4aR,6aS,7R,8R,10aR,10bR,12aR,14R,15R)-15-[[(2R)-2-amino-2,3-dimethylbutyl]oxy]-14-(5-amino-1H-tetrazol-1-yl)-8-[(1R)-1,2-dimethylpropyl]-1,6,6a,7,8,9,10,10a,10b,11,12,12a-dodecahydro-1,6a,8,10a-tetramethyl-4H-1,4a-propano-2H-phenanthro[1,2-c]pyran-7-carboxylic acid] showed an IC50 of 56.5 nM.

With CCN[C@H](CO[C@H]1[C@H](n2nnc(N)n2)C[C@@]23COC[C@]1(C)[C@@H]2CC[C@H]1C3=CC[C@@]2(C)[C@H](C(=O)O)[C@@](C)([C@H](C)C(C)C)CC[C@]12C)C(C)(C)C [Example 97, (1S,4aR,6aS,7R,8R,10aR,10bR,12aR,14R,15R)-14-(5-amino-2H-tetrazol-2-yl)-15-[[(2S)-2-(ethylamino)-3,3-dimethylbutyl]oxy]-8-[(1R)-1,2-dimethylpropyl]-1,6,6a,7,8,9,10,10a,10b,11,12,12a-dodecahydro-1,6a,8,10a-tetramethyl-4H-1,4a-propano-2H-phenanthro[1,2-c]pyran-7-carboxylic acid] the IC50 was 13.2 nM.

CC(C)[C@@H](C)[C@@]1(C)CC[C@]2(C)[C@H]3CC[C@@H]4[C@@]5(COC[C@@]4(C)[C@@H](OCCN(C)C)[C@H](n4nnc(N)n4)C5)C3=CC[C@@]2(C)[C@@H]1C(=O)O [Example 114, (1S,4aR,6aS,7R,8R,10aR,10bR,12aR,14R,15R)-14-(5-amino-2H-tetrazol-2-yl)-15-[2-(dimethylamino)ethoxy]-8-[(1R)-1,2-dimethylpropyl]-1,6,6a,7,8,9,10,10a,10b,11,12,12a-dodecahydro-1,6a,8,10a-tetramethyl-4H-1,4a-propano-2H-phenanthro[1,2-c]pyran-7-carboxylic acid] was tested, and the IC50 was 19.1 nM.

In the case of CC(C)[C@@H](C)[C@@]1(C)CC[C@]2(C)[C@H]3CC[C@@H]4[C@@]5(COC[C@@]4(C)[C@@H](OC[C@](C)(C(C)C)N4CCCCC4)[C@H](n4nnc(N)n4)C5)C3=CC[C@@]2(C)[C@@H]1C(=O)O [Example 11, (1S,4aR,6aS,7R,8R,10aR,10bR,12aR,14R,15R)-14-(5-amino-2H-tetrazol-2-yl)-15-[[(2S)-2,3-dimethyl-2-(1-piperidinyl)butyl]oxy]-8-[(1R)-1,2-dimethylpropyl]-1,6,6a,7,8,9,10,10a,10b,11,12,12a-dodecahydro-1,6a,8,10a-tetramethyl-4H-1,4a-propano-2H-phenanthro[1,2-c]pyran-7-carboxylic acid], the IC50 is reported as 78.8 nM.

Compound CC(C)[C@H](N)CO[C@H]1[C@H](n2nnc(N)n2)C[C@@]23COC[C@]1(C)[C@@H]2CC[C@H]1C3=CC[C@@]2(C)[C@H](C(=O)O)[C@@](C)([C@H](C)C(C)C)CC[C@]12C [Example 93, (1S,4aR,6aS,7R,8R,10aR,10bR,12aR,14R,15R)-14-(5-amino-2H-tetrazol-2-yl)-15-[[(2S)-2-amino-3-methylbutyl]oxy]-8-[(1R)-1,2-dimethylpropyl]-1,6,6a,7,8,9,10,10a,10b,11,12,12a-dodecahydro-1,6a,8,10a-tetramethyl-4H-1,4a-propano-2H-phenanthro[1,2-c]pyran-7-carboxylic acid] has an IC50 of 9.36 nM.

CC(C)N[C@@](C)(CO[C@H]1[C@H](n2nnc(N)n2)C[C@@]23COC[C@]1(C)[C@@H]2CC[C@H]1C3=CC[C@@]2(C)[C@H](C(=O)O)[C@@](C)([C@H](C)C(C)C)CC[C@]12C)C(C)C [Example 57, (1S,4aR,6aS,7R,8R,10aR,10bR,12aR,14R,15R)-14-(5-amino-2H-tetrazol-2-yl)-15-[[(2R)-2,3-dimethyl-2-[(1-methylethyl)amino]butyl]oxy]-8-[(1R)-1,2-dimethylpropyl]-1,6,6a,7,8,9,10,10a,10b,11,12,12a-dodecahydro-1,6a,8,10a-tetramethyl-4H-1,4a-propano-2H-phenanthro[1,2-c]pyran-7-carboxylic acid] gave an IC50 of 8.61 nM.

With CCCCCC(C)(CO[C@H]1[C@H](n2nnc(N)n2)C[C@@]23COC[C@]1(C)[C@@H]2CC[C@H]1C3=CC[C@@]2(C)[C@H](C(=O)O)[C@@](C)([C@H](C)C(C)C)CC[C@]12C)NCCC (stereo partly drawn) [Example 120, (1S,4aR,6aS,7R,8R,10aR,10bR,12aR,14R,15R)-14-(5-amino-2H-tetrazol-2-yl)-8-[(1R)-1,2-dimethylpropyl]-15-[[2-methyl-2-(propylamino)heptyl]oxy]-1,6,6a,7,8,9,10,10a,10b,11,12,12a-dodecahydro-1,6a,8,10a-tetramethyl-4H-1,4a-propano-2H-phenanthro[1,2-c]pyran-7-carboxylic acid] the IC50 was 60.7 nM.
